Consider eleven compounds from ChEMBL document CHEMBL5316338, “Discovery of Novel PTP1B Inhibitors with Once-Weekly Therapeutic Potential for Type 2 Diabetes: Design, Synthesis, and In Vitro and In Vivo Investigations of BimBH3 Peptide Analogues” (J Med Chem, 2023).

SMILES strings stand for the structures. Square brackets hold non-standard residues; d marks the D form. Peptide text beside a SMILES is read from it. * marks the point of attachment. ξ: configuration not given here. C19 diacid = O=C(O)CCCCCCCCCCCCCCCCCC(=O)*; C17 diacid = O=C(O)CCCCCCCCCCCCCCCC(=O)*; Docosanoyl = CCCCCCCCCCCCCCCCCCCCCC(=O)*; C16 diacid = O=C(O)CCCCCCCCCCCCCCC(=O)*; C15 diacid = O=C(O)CCCCCCCCCCCCCC(=O)*; Heptadecanoyl = CCCCCCCCCCCCCCCCC(=O)*; Pentadecanoyl = CCCCCCCCCCCCCCC(=O)*; Palmitoyl = CCCCCCCCCCCCCCCC(=O)*; Lauroyl = CCCCCCCCCCCC(=O)*; Decanoyl = CCCCCCCCCC(=O)*; ξR = N=C(N)NCCCC(N)C(=O)O

Series [1] deals with T1, Tyrosine-protein phosphatase non-receptor type 1 (Homo sapiens) (UniProt P18031).
T1 sequence (whole entry): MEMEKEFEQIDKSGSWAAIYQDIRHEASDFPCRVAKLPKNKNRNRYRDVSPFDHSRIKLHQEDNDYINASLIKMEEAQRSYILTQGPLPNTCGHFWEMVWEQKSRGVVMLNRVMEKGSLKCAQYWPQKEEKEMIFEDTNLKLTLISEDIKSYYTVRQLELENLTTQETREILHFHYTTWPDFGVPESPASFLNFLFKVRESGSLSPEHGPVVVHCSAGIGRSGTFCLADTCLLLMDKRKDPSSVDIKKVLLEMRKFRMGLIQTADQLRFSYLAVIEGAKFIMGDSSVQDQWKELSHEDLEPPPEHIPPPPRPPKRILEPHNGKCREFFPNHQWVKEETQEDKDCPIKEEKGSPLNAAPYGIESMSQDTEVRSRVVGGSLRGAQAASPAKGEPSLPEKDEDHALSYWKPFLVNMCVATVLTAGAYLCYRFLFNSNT
In words: Inhibition of N-terminal His tagged recombinant human PTP1B expressed in Escherichia coli using pNPP as substrate assessed as substrate hydrolysis at 40 umol/L relative to control. The following applies: dose 40.0 µmol/L.

The target in series [2] is T2, Tyrosine-protein phosphatase non-receptor type 1 (Homo sapiens, UniProt P18031).
T2 sequence (P18031 whole entry): T1 sequence (whole entry)
In words: Inhibition of N-terminal His tagged recombinant human PTP1B expressed in Escherichia coli using pNPP as substrate assessed as substrate hydrolysis.

In the next series the test system is Proteinase K. In words: Stability of compound assessed as Proteinase K (unknown origin) mediated compound degradation by measuring half-life by HPLC analysis. It counts as ADME.
Another series concerns Pepsin. The series can be described thus: Stability of compound assessed as Pepsin (unknown origin) mediated compound degradation by measuring half-life by HPLC analysis. The following applies: human. Type of series: ADME.
The target in series [3] is chymotrypsin (Homo sapiens, UniProt P17538+P40313+Q6GPI1+Q99895). In words: Stability of compound assessed as chymotrypsin (unknown origin) mediated compound degradation by measuring half-life by RP-HPLC analysis. Type of series: ADME, protein assay.
A further series has as its target T3, carboxypeptidase A (Homo sapiens, UniProt P15085).
T3 sequence (P15085 whole entry): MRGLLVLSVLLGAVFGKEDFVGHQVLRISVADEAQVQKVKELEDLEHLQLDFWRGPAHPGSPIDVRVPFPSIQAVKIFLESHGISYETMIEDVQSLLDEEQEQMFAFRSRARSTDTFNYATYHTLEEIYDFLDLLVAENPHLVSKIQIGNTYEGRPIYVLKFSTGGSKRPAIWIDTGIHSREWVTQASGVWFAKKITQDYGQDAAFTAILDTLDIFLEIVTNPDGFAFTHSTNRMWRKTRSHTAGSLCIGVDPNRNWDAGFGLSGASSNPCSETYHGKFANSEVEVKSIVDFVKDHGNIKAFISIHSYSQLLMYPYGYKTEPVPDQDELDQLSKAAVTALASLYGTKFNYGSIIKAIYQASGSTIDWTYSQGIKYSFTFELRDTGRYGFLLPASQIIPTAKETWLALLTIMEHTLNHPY
The series can be described thus: Stability of compound assessed as carboxypeptidase A (unknown origin) mediated compound degradation by measuring half-life by RP-HPLC analysis. Type of series: ADME.

The nature of series [4]: Stability of compound assessed as Proteinase K (unknown origin) mediated compound degradation by measuring fold change of half-life by HPLC analysis relative to BimBH312-mer peptide. It counts as ADME.
Series [5] can be described thus: Stability of compound assessed as Pepsin (unknown origin) mediated compound degradation by measuring fold change of half-life by HPLC analysis relative to BimBH312-mer peptide. Type of series: ADME. The note with it: human.
For series [6], the target named is Chymotrypsin (Homo sapiens, UniProt Q99895+P17538+P40313+Q6GPI1). The series can be described thus: Stability of compound assessed as chymotrypsin (unknown origin) mediated compound degradation by measuring fold change of half-life by RP-HPLC analysis relative to BimBH312-mer peptide. It counts as ADME, protein assay.
The next series addresses T4, Carboxypeptidase A1 (Homo sapiens, UniProt P15085).
T4 sequence (P15085 whole entry): T3 sequence (P15085 whole entry)
The series can be described thus: Stability of compound assessed as carboxypeptidase A (unknown origin) mediated compound degradation by measuring fold change of half-life by RP-HPLC analysis relative to BimBH312-mer peptide. It counts as ADME.

Broadly, the inhibition is the percentage by which the read-out fell short of the control. A word on the IC50: it is the point on the concentration scale where inhibition reaches its midpoint. Take `CCCCCCCCCCCCCCCC(=O)N[C@@H](CCC(=O)N[C@H](C(=O)N[C@@H](C)C(=O)N[C@H](CCC(N)=O)C(=O)N[C@@H](CCC(=O)O)C(=O)N[C@@H](CC(C)C)C(=O)N[C@@H](CCCNC(=N)N)C(=O)N[C@@H](CCCNC(=N)N)C(=O)N[C@H](C(=O)NCC(=O)N[C@@H](CC(=O)O)C(=O)N[C@@H](CCC(=O)O)C(=O)N[C@@H](Cc1ccccc1)C(=O)O)[C@@H](C)CC)[C@@H](C)CC)C(=O)O`: in series [1], the inhibition is greater than 50%. The IC50 in [2] turned out to be 4350 nM.
For the compound `CCCCCCCCCC(=O)N[C@H](C(=O)N[C@@H](C)C(=O)N[C@@H](CCC(N)=O)C(=O)N[C@@H](CCC(=O)O)C(=O)N[C@@H](CC(C)C)C(=O)N[C@@H](CCCNC(=N)N)C(=O)N[C@@H](CCCNC(=N)N)C(=O)N[C@H](C(=O)NCC(=O)N[C@@H](CC(=O)O)C(=O)N[C@@H](CCC(=O)O)C(=O)N[C@@H](Cc1ccccc1)C(=O)O)[C@@H](C)CC)[C@@H](C)CC` (Decanoyl-IAQELRRIGDEF-OH), the inhibition in [1] was greater than 50%. Further, the IC50 in series [2] came to 2140 nM.
As to `CC[C@H](C)[C@H](NC(=O)CCCCCCCCCCCCCCCC(=O)O)C(=O)N[C@@H](C)C(=O)N[C@@H](CCC(N)=O)C(=O)N[C@@H](CCC(=O)O)C(=O)N[C@@H](CC(C)C)C(=O)N[C@@H](CCCNC(=N)N)C(=O)NC(CCCNC(=N)N)C(=O)N[C@H](C(=O)NCC(=O)N[C@@H](CC(=O)O)C(=O)N[C@@H](CCC(=O)O)C(=O)N[C@@H](Cc1ccccc1)C(=O)O)[C@@H](C)CC` (stereo not given in full) ({C17 diacid}-IAQELR[ξR]IGDEF-OH), the inhibition in series [1] was greater than 50%. In series [2], the IC50 was found to be 1360 nM.
For `CC[C@H](C)[C@H](NC(=O)CCCCCCCCCCCCCCCCCC(=O)O)C(=O)N[C@@H](C)C(=O)N[C@@H](CCC(N)=O)C(=O)N[C@@H](CCC(=O)O)C(=O)N[C@@H](CC(C)C)C(=O)N[C@@H](CCCNC(=N)N)C(=O)NC(CCCNC(=N)N)C(=O)N[C@H](C(=O)NCC(=O)N[C@@H](CC(=O)O)C(=O)N[C@@H](CCC(=O)O)C(=O)N[C@@H](Cc1ccccc1)C(=O)O)[C@@H](C)CC` (stereo not given in full) ({C19 diacid}-IAQELR[ξR]IGDEF-OH) the same measures were greater than 50% and 1270 nM.
For `CCCCCCCCCCCCCCCCCCCCCC(=O)N[C@H](C(=O)N[C@@H](C)C(=O)N[C@@H](CCC(N)=O)C(=O)N[C@@H](CCC(=O)O)C(=O)N[C@@H](CC(C)C)C(=O)N[C@@H](CCCNC(=N)N)C(=O)NC(CCCNC(=N)N)C(=O)N[C@H](C(=O)NCC(=O)N[C@@H](CC(=O)O)C(=O)N[C@@H](CCC(=O)O)C(=O)N[C@@H](Cc1ccccc1)C(=O)O)[C@@H](C)CC)[C@@H](C)CC` (stereo not given in full) (Docosanoyl-IAQELR[ξR]IGDEF-OH) the same measures were greater than 50% and 6780 nM.
What is called half-life is the time needed for the level to fall by half in the phase considered. `CCCCCCCCCCCCCCCC(=O)N[C@H](C(=O)N[C@@H](C)C(=O)N[C@@H](CCC(N)=O)C(=O)N[C@@H](CCC(=O)O)C(=O)N[C@@H](CC(C)C)C(=O)N[C@@H](CCCNC(=N)N)C(=O)N[C@@H](CCCNC(=N)N)C(=O)N[C@H](C(=O)NCC(=O)N[C@@H](CC(=O)O)C(=O)N[C@@H](CCC(=O)O)C(=O)N[C@@H](Cc1ccccc1)C(=O)O)[C@@H](C)CC)[C@@H](C)CC` (Palmitoyl-IAQELRRIGDEF-OH): in [1], the inhibition was greater than 50%. The IC50 in series [2] turned out to be 960 nM. In addition, the half-life with Proteinase K was 2.82 h; in the series on Pepsin, 2.7 h; on chymotrypsin [3], 0.56 h; at carboxypeptidase A, 3.19 h. Also, the “fold change (FC)” value worked out at 56.4 in series [4], 122.7 in [5], 13 on Chymotrypsin [6] and 99.7 on Carboxypeptidase A1.
Turning to `CC[C@H](C)[C@H](NC(=O)CCCCCCCCCCCCCCC(=O)O)C(=O)N[C@@H](C)C(=O)N[C@@H](CCC(N)=O)C(=O)N[C@@H](CCC(=O)O)C(=O)N[C@@H](CC(C)C)C(=O)N[C@@H](CCCNC(=N)N)C(=O)N[C@@H](CCCNC(=N)N)C(=O)N[C@H](C(=O)NCC(=O)N[C@@H](CC(=O)O)C(=O)N[C@@H](CCC(=O)O)C(=O)N[C@@H](Cc1ccccc1)C(=O)O)[C@@H](C)CC` ({C16 diacid}-IAQELRRIGDEF-OH), the inhibition in series [1] was greater than 50%. Moreover, in [2], the IC50 stood at 2880 nM.
For `CCCCCCCCCCCC(=O)N[C@H](C(=O)N[C@@H](C)C(=O)N[C@@H](CCC(N)=O)C(=O)N[C@@H](CCC(=O)O)C(=O)N[C@@H](CC(C)C)C(=O)N[C@@H](CCCNC(=N)N)C(=O)N[C@@H](CCCNC(=N)N)C(=O)N[C@H](C(=O)NCC(=O)N[C@@H](CC(=O)O)C(=O)N[C@@H](CCC(=O)O)C(=O)N[C@@H](Cc1ccccc1)C(=O)O)[C@@H](C)CC)[C@@H](C)CC` (Lauroyl-IAQELRRIGDEF-OH) the same measures were greater than 50% and 2780 nM.
For the compound `CCCCCCCCCCCCCCCCC(=O)N[C@H](C(=O)N[C@@H](C)C(=O)N[C@@H](CCC(N)=O)C(=O)N[C@@H](CCC(=O)O)C(=O)N[C@@H](CC(C)C)C(=O)N[C@@H](CCCNC(=N)N)C(=O)N[C@@H](CCCNC(=N)N)C(=O)N[C@H](C(=O)NCC(=O)N[C@@H](CC(=O)O)C(=O)N[C@@H](CCC(=O)O)C(=O)N[C@@H](Cc1ccccc1)C(=O)O)[C@@H](C)CC)[C@@H](C)CC` (Heptadecanoyl-IAQELRRIGDEF-OH), the inhibition in [1] was greater than 50%. The IC50 in series [2] amounted to 2570 nM.
As to `CC[C@H](C)[C@H](NC(=O)CCCCCCCCCCCCCC(=O)O)C(=O)N[C@@H](C)C(=O)N[C@@H](CCC(N)=O)C(=O)N[C@@H](CCC(=O)O)C(=O)N[C@@H](CC(C)C)C(=O)N[C@@H](CCCNC(=N)N)C(=O)N[C@@H](CCCNC(=N)N)C(=O)N[C@H](C(=O)NCC(=O)N[C@@H](CC(=O)O)C(=O)N[C@@H](CCC(=O)O)C(=O)N[C@@H](Cc1ccccc1)C(=O)O)[C@@H](C)CC` ({C15 diacid}-IAQELRRIGDEF-OH), in series [1], the inhibition is greater than 50%. For the same compound, the IC50 in series [2] came to 1540 nM.
The like results for `CCCCCCCCCCCCCCC(=O)N[C@H](C(=O)N[C@@H](C)C(=O)N[C@@H](CCC(N)=O)C(=O)N[C@@H](CCC(=O)O)C(=O)N[C@@H](CC(C)C)C(=O)N[C@@H](CCCNC(=N)N)C(=O)N[C@@H](CCCNC(=N)N)C(=O)N[C@H](C(=O)NCC(=O)N[C@@H](CC(=O)O)C(=O)N[C@@H](CCC(=O)O)C(=O)N[C@@H](Cc1ccccc1)C(=O)O)[C@@H](C)CC)[C@@H](C)CC` (Pentadecanoyl-IAQELRRIGDEF-OH) were, in that order, greater than 50% and 1660 nM.
